Active and inactive are the calls of the source. The calls are words filed in the database; no cut-off is given here.
How the values were obtained:
[1] = target: T1, Indoleamine 2,3-dioxygenase 1 (Homo sapiens, UniProt P14902); assay: Inhibition of IDO1 in human HCT-116 cells using L-Tryptophan as substrate incubated for 24 hrs by microplate reader analysis; format: cell-based
[2] = tested on: HeLa; assay: Cytotoxicity against human HeLa cells transfected with IDO1 siRNA incubated for 24 hrs by CCK-8 assay (reference value: 9.74 +/- 1.64 uM); format: functional, cell-based
[3] = tested on: HeLa; assay: Cytotoxicity against IDO1 knockdown human HeLa cells incubated for 24 hrs by CCK-8 assay (reference value: 45.93 +/- 2.23 nM); format: functional, cell-based
[4] = tested on: IDO1; assay: Selectivity ratio of IC50 for cytotoxicity against human HeLa cells to EC50 for inhibition of IDO1 in human HeLa cells; format: cell-based; details: read-out: Ratio IC50/EC50
[5] = target: Indoleamine 2,3-dioxygenase 1 (Mus musculus) (UniProt P28776); assay: In vivo inhibition of IDO1 in BALB/c mouse implanted with mouse CT-26 cells assessed as reduction in plasma Kyn level at 60 mg/kg, po administered once daily by LC-MS/MS analysis; format: functional, organism-based
[6] = tested on: HeLa; assay: Cytotoxicity against human HeLa cells incubated for 24 hrs in presence of NAC CCK-8 assay; format: functional, cell-based
[7] = tested on: HCT-116; assay: Induction of apoptosis in human HCT-116 cells assessed as apoptotic rate at 2.5 uM incubated for 24 hrs by Annexin-V/PI staining based flow cytometry analysis; format: functional
[8] = tested on: HCT-116; assay: Antitumor activity against human HCT-116 cells xenografted in athymic nude BALB/c mouse assessed as increase in apoptotic cells at 15 to 60 mg/kg, ig administered daily for 28 days and measured every 4 days by tunel assay; format: functional, organism-based; details: dose 15-60 mg/kg, time 28.0 day
[9] = target: Indoleamine 2,3-dioxygenase 1 (Mus musculus) (UniProt P28776); assay: In vivo inhibition of IDO1 in BALB/c mouse implanted with mouse CT-26 cells assessed as increase in tumor Trp level at 60 mg/kg, po administered once daily by LC-MS/MS analysis; format: functional, organism-based
[10] = tested on: IDO1; assay: Selectivity ratio of IC50 for cytotoxicity against mouse CT26 cells to EC50 for inhibition of IDO1 in mouse CT26 cells; format: cell-based; details: read-out: Ratio IC50/EC50
[11] = tested on: HCT-116; assay: Cytotoxicity against TrxR1 knockdown human HCT-116 cells incubated for 24 hrs by CCK-8 assay (reference value: 3.08 +/- 0.55 uM); format: functional, cell-based; details: HCT-116, 24 h
[12] = target: T2, Thioredoxin reductase 1, cytoplasmic (Homo sapiens, UniProt Q16881); assay: Inhibition of TrxR1 in human HeLa cells incubated for 24 hrs; format: cell-based
T2 sequence (Q16881 whole entry): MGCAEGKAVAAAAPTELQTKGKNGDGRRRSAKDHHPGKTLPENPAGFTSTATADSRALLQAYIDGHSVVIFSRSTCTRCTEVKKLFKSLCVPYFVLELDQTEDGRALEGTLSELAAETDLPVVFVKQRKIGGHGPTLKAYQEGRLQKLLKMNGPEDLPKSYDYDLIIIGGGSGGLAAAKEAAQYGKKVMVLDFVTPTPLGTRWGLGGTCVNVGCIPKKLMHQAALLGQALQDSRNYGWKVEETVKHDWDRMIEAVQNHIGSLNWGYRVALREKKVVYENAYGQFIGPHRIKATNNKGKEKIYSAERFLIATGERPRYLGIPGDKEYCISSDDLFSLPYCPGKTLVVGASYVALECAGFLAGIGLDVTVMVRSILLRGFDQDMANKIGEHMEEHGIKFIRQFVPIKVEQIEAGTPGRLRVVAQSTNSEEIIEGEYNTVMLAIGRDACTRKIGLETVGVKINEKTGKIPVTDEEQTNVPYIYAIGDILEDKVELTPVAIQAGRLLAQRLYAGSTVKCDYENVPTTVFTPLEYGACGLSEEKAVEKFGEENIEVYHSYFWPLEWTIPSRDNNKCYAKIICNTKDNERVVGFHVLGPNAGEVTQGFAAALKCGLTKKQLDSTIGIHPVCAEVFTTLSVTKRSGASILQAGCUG

[13] = target: T1, Indoleamine 2,3-dioxygenase 1; assay: Inhibition of IDO1 in human HeLa cells using L-Tryptophan as substrate incubated for 24 hrs by microplate reader analysis; format: cell-based
[14] = tested on: HeLa; assay: Cytotoxicity against TrxR1 knockdown human HeLa cells incubated for 24 hrs by CCK-8 assay (reference value: 13.79 +/- 2 uM); format: functional, cell-based
[15] = Cytotoxicity against human HeLa cells incubated for 48 hrs by CCK-8 assay; format: toxicity, cell-based
[16] = tested on: HCT-116; assay: Antiproliferative activity against human HCT-116 cells assessed as cell growth inhibition incubated for 48 hrs by CCK-8 assay; format: functional, cell-based; details: HCT-116, 48 h
[17] = target: Indoleamine 2,3-dioxygenase 1 (Mus musculus) (UniProt P28776); assay: In vivo inhibition of IDO1 in C57BL/6 mouse assessed as reduction in plasma Kyn level at 60 mg/kg, po administered once daily by LC-MS/MS analysis; format: functional, organism-based
[18] = tested on: CT26; assay: Antitumor activity against mouse CT26 cells implanted in athymic nude BALB/c mouse assessed as reduction in proliferative nTreg lymphocytes at 15 to 60 mg/kg, ig administered daily for 28 days and measured every 4 days by immunofluorescence analysis; format: functional, organism-based; details: dose 15-60 mg/kg, time 28.0 day
[19] = tested on: HCT-116; assay: Antitumor activity against human HCT-116 cells xenografted in athymic nude BALB/c mouse assessed as reduction in mitosis of tumor cells at 15 to 60 mg/kg, ig administered daily for 28 days and measured every 4 days; format: functional, organism-based; details: dose 15-60 mg/kg, time 28.0 day
[20] = tested on: HCT-116; assay: Cytotoxicity against human HCT-116 cells incubated for 24 hrs in presence of NAC CCK-8 assay; format: functional, cell-based; details: HCT-116, 24 h
[21] = Cytotoxicity against human HCT-116 cells incubated for 48 hrs by CCK-8 assay; format: toxicity, cell-based
[22] = Toxicity in athymic BALB/c mouse xenografted with human HCT-116 cells assessed as effect on body weight at 15 to 60 mg/kg, ig administered daily for 28 days and measured every 4 days; format: organism-based; details: in vivo, po, 672 h, dose 15-60 mg/kg, time 28 day
[23] = tested on: CT26; assay: Antitumor activity against mouse CT26 cells implanted in […] BALB/c mouse assessed as increase in CD8 T lymphocytes at 15 to 60 mg/kg, ig administered daily for 28 days and measured every 4 days; format: functional, organism-based; details: dose 15-60 mg/kg, time 28.0 day
[24] = Toxicity in athymic BALB/c mouse xenografted with human HCT-116 cells assessed as change in kidney morphology at 15 to 60 mg/kg, ig administered daily for 28 days and measured every 4 days; format: organism-based; details: in vivo, po, 672 h, dose 15-60 mg/kg, time 28 day
[25] = tested on: CT26; assay: Antitumor activity against mouse CT26 cells implanted in athymic nude BALB/c mouse assessed as increase in CTL proliferation by measuring Ki67 expression at 60 mg/kg, ig administered daily for 28 days and measured every 4 days by immunofluorescence analysis; format: functional, organism-based; details: time 28.0 day
[26] = tested on: HeLa; assay: Cytotoxicity against human HeLa cells transfected with TrxR1 siRNA incubated for 24 hrs by CCK-8 assay (reference value: 9.74 +/- 1.64 uM); format: functional, cell-based
[27] = tested on: HeLa; assay: Induction of cell cycle arrest in human HeLa cells assessed as G1/S phase arrest at 2.5 to 10 uM pretreated with NAC for 2 hrs followed by compound addition and measured after 12 hrs by PI staining based flow cytometry analysis; format: functional; details: dose 2.5-10 µM
[28] = tested on: CT26; assay: Antitumor activity against mouse CT26 cells implanted in athymic nude BALB/c mouse assessed as increase in CTL proliferation by measuring Ki67 expression at 15 to 60 mg/kg, ig administered daily for 28 days and measured every 4 days by flow cytometry analysis; format: functional, organism-based; details: dose 15-60 mg/kg, time 28.0 day

Indoleamine 2,3-dioxygenase 1 (Mus musculus), sequence (P28776 whole entry, looked up): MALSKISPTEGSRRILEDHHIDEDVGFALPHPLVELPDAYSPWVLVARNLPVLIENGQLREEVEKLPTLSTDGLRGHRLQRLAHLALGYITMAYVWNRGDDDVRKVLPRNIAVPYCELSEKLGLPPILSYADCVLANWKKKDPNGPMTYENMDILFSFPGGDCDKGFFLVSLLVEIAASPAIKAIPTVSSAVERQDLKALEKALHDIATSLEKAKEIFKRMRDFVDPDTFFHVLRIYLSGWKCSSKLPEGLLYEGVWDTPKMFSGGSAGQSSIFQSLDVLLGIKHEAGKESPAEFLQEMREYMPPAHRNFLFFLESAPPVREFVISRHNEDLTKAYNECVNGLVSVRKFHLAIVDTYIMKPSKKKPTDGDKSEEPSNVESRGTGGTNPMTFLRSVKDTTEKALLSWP
T1 sequence (P14902 whole entry): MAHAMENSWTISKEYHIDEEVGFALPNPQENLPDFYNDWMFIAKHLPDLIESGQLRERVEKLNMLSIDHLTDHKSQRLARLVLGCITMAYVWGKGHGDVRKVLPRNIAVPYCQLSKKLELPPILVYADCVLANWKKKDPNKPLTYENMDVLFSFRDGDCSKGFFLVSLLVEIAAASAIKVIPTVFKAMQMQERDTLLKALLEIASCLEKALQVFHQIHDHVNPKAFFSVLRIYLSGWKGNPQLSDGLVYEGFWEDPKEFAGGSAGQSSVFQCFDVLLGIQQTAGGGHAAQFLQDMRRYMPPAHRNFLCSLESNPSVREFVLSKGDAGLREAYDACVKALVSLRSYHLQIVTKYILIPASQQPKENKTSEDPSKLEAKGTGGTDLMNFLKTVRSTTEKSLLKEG

O=C(Cc1ccc(O)cc1)Nc1nnc(CCCNc2nonc2/C(=N\O)Nc2ccc(F)c(Br)c2)s1
EC50 [1]: 34.1 µM
IC50 [2]: 10.1 µM
IC50 [3]: 26.1 µM
selectivity ratio [4]: 224
Activity [5]: Active
IC50 [6]: 74.2 µM
Activity [7]: 22.57%
Activity [8]: Active
Activity [9]: Active
selectivity ratio [10]: 5.35
IC50 [11]: 1.52 µM
EC50 [12]: 13.1 µM
EC50 [13]: 45.6 µM
IC50 [14]: 7.2 µM
IC50 at 48 h [15]: 10.2 µM
IC50 [16]: 3.44 µM
Activity [17]: Active
Activity [18]: Active
Activity [19]: Active
IC50 [20]: 60.8 µM
IC50 at 48 h [21]: 3.44 µM
Activity [22]: Non-Toxic
Activity [23]: Active
Activity [24]: Non-Toxic
Activity [25]: Active
IC50 [26]: 4.86 µM
Activity [27]: Active
Activity [28]: Active

— ChEMBL document CHEMBL5385848, “Discovery of novel hydroxyamidine based indoleamine 2,3-dioxygenase 1 (IDO1) and thioredoxin reductase 1 (TrxR1) dual inhibitors” (Eur J Med Chem, 2023)
